Values quoted from earlier work as cited in publication PMC10928227, “Assessing biologic/toxicologic effects of extractables from plastic contact materials for advanced therapy manufacturing using cell painting assay and cytotoxicity screening” (Scientific Reports, 2024).
Read-outs that look alike come from different tables or passages of the source.

Tests used:
[1] = cited from earlier work
[2] = cited from earlier work; remark: listed apart in the source
[3] = set-up: method as in ref EURL ECVAM genotoxicity and carcinogencity database, Madia F et al, 2020; settings: scale Mutagenicity I (ECVAM), ref EURL ECVAM genotoxicity and carcinogencity database, Madia F et al, 2020; cited from earlier work
[4] = in Vivo, Database Genotoxicity & Carcinogenicity ECVAM, ref EURL ECVAM genotoxicity and carcinogencity database, Madia F et al, 2020
[5] = in Vivo, Database Genotoxicity OASIS, ref Yu F. Sasaki et. al., 2000, Critical Reviews in Toxicology,30(6),Pp.629-799
[6] = in Vitro, Database Genotoxicity & Carcinogenicity ECVAM, ref EURL ECVAM genotoxicity and carcinogencity database, Madia F et al, 2020

O=C1CCCCCN1 [105-60-2]
Positive: Chromosome aberration, in Vitro Mammalian Chromosome Aberration Test ([2]; in Vitro, Chinese hamster, Chinese Hamster Lung (CHL), Database Genotoxicity OASIS, ref ECHA, Registration dossier)
Negative: Chromosome aberration, in Vivo Mammalian Chromosome Aberration Test ([1]; Database Genotoxicity & Carcinogenicity ECVAM, ref EURL ECVAM genotoxicity and carcinogencity database, Madia F et al, 2020) | Chromosome aberration, Micronucleus Assay [1, 4] | DNA damage and repair, COMET or Alkaline Elution [1, 4] | DNA and protein damage, Liver Micronucleus ([1]; in Vivo, Database Genotoxicity OASIS, ref T. Shirotori, M. Miyagawa, Proceeding of the 26th JEMS Annual Meeting, Hatano, 1997, p. 83) | Chromosome aberration, Micronucleus Assay [1, 5] | DNA damage and repair, Single Cell Gel Electrophoresis (comet) Assay [1, 5] | Gene mutation, Bacterial Reverse Mutation Assay (e.g. Ames Test) ([2]; Salmonella typhimurium, No Strain Information, in Vitro, Database: Genotoxicity OASIS, ref Mutation Research 584 (2005) 1-256, Kirkland et al.) | Gene mutation, Bacterial Reverse Mutation Assay (e.g. Ames Test) ([2]; Salmonella typhimurium, Strain TA 97, in Vitro, Database: Bacterial mutagenicity ISSSTY, ref CCRIS database,Toxnet databases (Romualdo Benigni)) | Gene mutation, Bacterial Reverse Mutation Assay (e.g. Ames Test) ([2]; Salmonella typhimurium, Strain TA 98, in Vitro, Database: Bacterial mutagenicity ISSSTY, ref CCRIS database,Toxnet databases (Romualdo Benigni)) | Gene mutation, Bacterial Reverse Mutation Assay (e.g. Ames Test) ([2]; Salmonella typhimurium, Strain TA 98, in Vitro, Database: Genotoxicity OASIS, ref P&G) | Gene mutation, Bacterial Reverse Mutation Assay (e.g. Ames Test) ([2]; Salmonella typhimurium, Strain TA 100, in Vitro, Database: Bacterial mutagenicity ISSSTY, ref CCRIS database,Toxnet databases (Romualdo Benigni)) | Gene mutation, Bacterial Reverse Mutation Assay (e.g. Ames Test) ([2]; Salmonella typhimurium, Strain TA 100, in Vitro, Database: Genotoxicity OASIS, ref P&G) | Gene mutation, Bacterial Reverse Mutation Assay (e.g. Ames Test) ([2]; Salmonella typhimurium, Strain TA 102, in Vitro, Database: Bacterial mutagenicity ISSSTY, ref CCRIS database,Toxnet databases (Romualdo Benigni)) | Gene mutation, Bacterial Reverse Mutation Assay (e.g. Ames Test) ([2]; Salmonella typhimurium, Strain TA 1535, in Vitro, Database: Bacterial mutagenicity ISSSTY, ref CCRIS database,Toxnet databases (Romualdo Benigni)) | Gene mutation, Bacterial Reverse Mutation Assay (e.g. Ames Test) ([2]; Salmonella typhimurium, Strain TA 1535, in Vitro, Database: Genotoxicity OASIS, ref P&G) | Gene mutation, Bacterial Reverse Mutation Assay (e.g. Ames Test) ([2]; Salmonella typhimurium, Strain TA 1537, in Vitro, Database: Bacterial mutagenicity ISSSTY, ref CCRIS database,Toxnet databases (Romualdo Benigni)) | Gene mutation, Bacterial Reverse Mutation Assay (e.g. Ames Test) ([2]; Salmonella typhimurium, Strain TA 1537, in Vitro, Database: Genotoxicity OASIS, ref P&G) | Gene mutation, Bacterial Reverse Mutation Assay (e.g. Ames Test) ([2]; Salmonella typhimurium, Strain TA 1538, in Vitro, Database: Bacterial mutagenicity ISSSTY, ref CCRIS database,Toxnet databases (Romualdo Benigni)) | Chromosome aberration, in Vitro Mammalian Chromosome Aberration Test ([2]; in Vitro, Chinese hamster, Chinese Hamster Lung (CHL), Duration 24÷48 h, Database Genotoxicity OASIS, ref Sofuni, T., Ed. (1998). Data Book of Chromosomal Aberration Test In Vitro, Revised Edition) | Chromosome aberration, Micronucleus Assay [2, 6] | Chromosome aberration, in Vitro Mammalian Chromosome Aberration Test [2, 6] | DNA damage and repair, COMET or Alkaline Elution [2, 6] | Gene mutation, Bacterial Reverse Mutation Assay (e.g. Ames Test) [2, 6] | Gene mutation, Mammalian Cell Gene Mutation (MLA HPRT) [2, 6] | Gene mutation, Bacterial Reverse Mutation Assay (e.g. Ames Test) ([2]; in Vitro, Salmonella typhimurium, No Strain Information, Database Genotoxicity OASIS, ref Journal of Medicinal Chemistry 48 (1), pp. 312-32, 25, Kazius J, McGuire R., Bursi R) | Gene mutation, Bacterial Reverse Mutation Assay (e.g. Ames Test) ([2]; in Vitro, Salmonella typhimurium, Strain TA 97, Database Genotoxicity OASIS, ref P&G) | Gene mutation, Bacterial Reverse Mutation Assay (e.g. Ames Test) ([2]; in Vitro, Salmonella typhimurium, Strain TA 98, Database Genotoxicity OASIS, ref P&G) | Gene mutation, Bacterial Reverse Mutation Assay (e.g. Ames Test) ([2]; in Vitro, Salmonella typhimurium, Strain TA 100, Database Genotoxicity OASIS, ref P&G) | Gene mutation, Bacterial Reverse Mutation Assay (e.g. Ames Test) ([2]; in Vitro, Salmonella typhimurium, Strain TA 102, OECD Guideline 471, Database Genotoxicity OASIS, ref CCRIS database,Toxnet databases) | Gene mutation, Bacterial Reverse Mutation Assay (e.g. Ames Test) ([2]; in Vitro, Salmonella typhimurium, Strain TA 1535, Database Genotoxicity OASIS, ref P&G) | Gene mutation, Bacterial Reverse Mutation Assay (e.g. Ames Test) ([2]; in Vitro, Salmonella typhimurium, Strain TA 1537, Database Genotoxicity OASIS, ref P&G) | Gene mutation, Bacterial Reverse Mutation Assay (e.g. Ames Test) ([2]; in Vitro, Salmonella typhimurium, Strain TA 1538, Database Genotoxicity OASIS, ref P&G) | Gene mutation, Mammalian Cell Gene Mutation Assay ([2]; in Vitro, T-lymphoma Cell Lines, Database Genotoxicity OASIS, ref Mutation Research 584 (2005) 1-256, Kirkland et al.) | Genetic Toxicity, unscheduled DNA synthesis (UDS in Vitro) ([2]; in Vitro, scale Mutagenicity I (ECVAM), ref EURL ECVAM genotoxicity and carcinogencity database, Madia F et al, 2020) | Genetic Toxicity, unscheduled DNA synthesis (UDS in Vivo) [3]
